From US20230123585A1, “COMPOSITIONS AND METHODS FOR TREATING OR PREVENTING CANCER USING DEUBIQUITINASE INHIBITORS” (The University of Chicago, priority 2020, published 2023)

Legend:
[1] = system: m^6A methyltransferase complex in HCT-116 cells; assay: Immunoblot of m^6A methyltransferase complex in HCT-116 cell lysates; format: cell-based; settings: 8 h, 10 μM PD0325901 or 0.1 μM trametinib
Method: FIGS. 14A-14I: Phosphorylation of the m^6A Methyltransferase Complex May Affect Tumorigenesis. (A) Oncogenes (promote cancer), tumor suppressors (inhibit carcinogenesis), and drivers (important in cancer development, either oncogene or tumor suppressor) were used as classifiers by Cancermine database to identify the potential role of METTL3 from the published literature. (B) LC-MS/MS quantification of the m^6A/A ratio in mRNA of melanoma cell lines. (C) After 8 h treatment with 10 μM PD0325901 or 0.1 μM tramentib, cell lysates from HCT-116 cells were analyzed by immunoblot. (D) Kaplan-Meier analysis of overall survival time based on METTL3 expression from the skin cutaneous melanoma (SKCM) dataset at The Cancer Genome Atlas (TCGA). […] The ubiquitination of METTL3 was detected by IP with anti-METTL3 and immunoblot with anti-HA. (F) After 8 hr treatment with 10 μM EOAI3402143 (EOAI) or 30 μM vialinin A, cell lysates from HCT-116 cells were analyzed by immunoblot. […] (I) LC-MS/MS quantification of the m^6A/A ratio in mRNA of breast cancer cell lines.
Immunoprecipitation, immunoblotting, and in vitro kinase assay. […] Primary antibodies were detected by HRP-linked secondary antibodies (Cell Signaling) together with SuperSignal West Pico Plus chemiluminescent substrate (Thermo Scientific) and imaged in a FluorChem R system (ProteinSimple).

p-METTL3 (S43) = p-METTL3 (S43) in A375 cells, IP with METTL3 antibody followed by immunoblot; format: cell-based, human; settings: 1 h, 1 μM dabrafenib, 1 μM PLX-4720, 10 μM PD0325901, 0.1 μM trametinib
Description: FIGS. 10A-10G: ERK Interacts and Phosphorylates METTL3 and WTAP. (A-C) Mass spectrometry detected S43, S50 and S525 phosphorylation in METTL3 in 293T cells co-transfected with B-RAF V600E. (D) Characterization of anti-p-METTL3 (S43) antibodies of 293T cells transfected as indicated with MEK S218D/S222D, HER2 V659E, B-RAF V600E and WT or non-phosphorylatable alanine mutant (3A) METTL3. (E) The METTL3 S43 phosphorylation was identified by in vitro kinase assays, in which purified METTL3-METTL14 were incubated with activated ERK2. (F) A375 cells were treated with 1 μM dabrafenib, 1 μM PLX-4720, 10 μM PD0325901, 0.1 μM tramentib for 1 h. Cell lysates were subjected to IP with METTL3 antibody followed by immunoblot. (G) Phos-tag SDS-PAGE showing the phosphorylation status of WT or non-phosphorylatable alanine mutants of mice WTAP in 293T cells co-transfected with B-RAF. 2A, T298A/S341A.
To investigate METTL3 phosphorylation by ERK inside cells, a polyclonal antibody was generated that targets S43-phosphorylated METTL3. This antibody recognizes S43-phosphorylated METTL3 but not a mutant form of METTL3, METTL3 3A, with all three phosphorylation serine sites replaced with alanine (FIG. 10D). This P-S43 antibody was then used as a tool to monitor METTL3 phosphorylation. […] Furthermore, the p-METTL3 (S43) in A375 cells, a human melanoma cell line with constitutively active ERK due to a B-RAF V600E mutation, was abrogated by treatments with B-RAF inhibitors (dabrafenib and PLX4720) or MEK inhibitors (PD0325901 and trametinib) (FIG. 10F), supporting that S43 phosphorylation on METTL3 is installed through the ERK pathway.
Immunoprecipitation, immunoblotting, and in vitro kinase assay. Immunoprecipitation (IP) and immunoblotting (IB) were performed as previously described (Sun et al., 2016). […] Primary antibodies were detected by HRP-linked secondary antibodies (Cell Signaling) together with SuperSignal West Pico Plus chemiluminescent substrate (Thermo Scientific) and imaged in a FluorChem R system (ProteinSimple).

O=C(NOC[C@H](O)CO)c1ccc(F)c(F)c1Nc1ccc(I)cc1F [PD0325901]
m^6A methyltransferase complex level [1]: decreased | p-METTL3 (S43) (p-METTL3 (S43)): abrogated
